Measurements as given in patent US8680275B2, “Fused heterocyclic compounds as orexin receptor modulators” (Janssen Pharmaceutica NV, priority 2009, dated 2014).

What was measured:
[1] = target: human orexin 1 receptor (Homo sapiens (Human), UniProt O43613); test: Human orexin 1 receptor radioligand binding ([3H]-SB674042 competition); conditions: CHO cells stably expressing human orexin 1 receptor; [3H]-SB674042 4 nM final; read-out: OR-1 Ki
Outline: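 CHO cells stably expressing human OX1R incubated 60 min at room temperature with [3H]-SB674042 and compounds (7 concentrations, 0.1 nM–10 μM; DMSO ≤0.1%) in PBS. Nonspecific binding defined with 10 μM of a reference urea antagonist; bound radioactivity measured by filtration and scintillation counting.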

[2] = target: human orexin-2 receptor (Homo sapiens (Human), UniProt O43614); test: Human orexin 2 receptor radioligand binding ([3H]-EMPA competition); conditions: HEK293 cells stably expressing human orexin-2 receptor; [3H]-EMPA 5 nM final; read-out: OR-2 Ki
Outline: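 Competition binding on HEK293 cells stably expressing human orexin-2 receptor, using 5 nM final [3H]-EMPA in PBS, compounds 0.1 nM to 10 μM (DMSO ≤0.1%). 60 min at room temperature, then filtration and scintillation counting; nonspecific binding defined with 10 μM of a reference antagonist.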

Chain of human orexin-2 receptor (O43614 whole entry): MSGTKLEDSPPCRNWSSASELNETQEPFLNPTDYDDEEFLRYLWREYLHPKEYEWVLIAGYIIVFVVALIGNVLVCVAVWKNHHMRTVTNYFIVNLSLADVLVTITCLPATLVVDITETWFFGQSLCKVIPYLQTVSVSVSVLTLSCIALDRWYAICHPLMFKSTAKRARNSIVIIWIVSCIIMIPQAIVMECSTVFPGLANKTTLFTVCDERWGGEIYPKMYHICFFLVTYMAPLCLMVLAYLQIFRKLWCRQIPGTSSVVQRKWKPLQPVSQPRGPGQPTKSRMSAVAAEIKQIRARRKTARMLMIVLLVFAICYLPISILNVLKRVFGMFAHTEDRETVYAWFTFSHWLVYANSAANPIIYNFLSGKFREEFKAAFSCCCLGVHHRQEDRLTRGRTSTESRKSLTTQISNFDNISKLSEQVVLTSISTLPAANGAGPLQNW
Chain of human orexin 1 receptor (O43613 whole entry): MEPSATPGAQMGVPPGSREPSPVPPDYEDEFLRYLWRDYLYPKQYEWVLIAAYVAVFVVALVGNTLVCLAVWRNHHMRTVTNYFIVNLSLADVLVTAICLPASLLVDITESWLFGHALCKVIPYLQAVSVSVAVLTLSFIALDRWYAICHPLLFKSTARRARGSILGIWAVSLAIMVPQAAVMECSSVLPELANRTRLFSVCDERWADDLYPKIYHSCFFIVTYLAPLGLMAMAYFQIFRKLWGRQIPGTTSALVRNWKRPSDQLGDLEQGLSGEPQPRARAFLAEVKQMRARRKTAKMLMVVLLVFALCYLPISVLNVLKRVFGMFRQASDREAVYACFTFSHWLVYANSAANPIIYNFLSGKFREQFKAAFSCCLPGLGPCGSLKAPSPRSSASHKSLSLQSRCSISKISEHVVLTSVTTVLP

SMILES | Ki [1] [nM] | Ki [2] [nM]
Cc1cc(C)nc(N2C[C@H]3CCN(C(=O)c4ccccc4-c4ccccc4)C[C@H]32)n1 [Example 18, (1S,6R)Biphenyl-2-yl-[8-(4,6-dimethyl-pyrimidin-2-yl)-3,8-diaza-bicyclo[4.2.0]oct-3-yl]-methanone] | 3830 | 763
O=C(c1ccccc1-n1nccn1)N1CC[C@H]2CN(c3cnc4ccccc4n3)[C@H]2C1 [Example 39, (1R,6S)-(8-Quinoxalin-2-yl-3,8-diaza-bicyclo[4.2.0]oct-3-yl)-(2-[1,2,3]triazol-2-yl-phenyl)methanone] | 32 | 20
Cc1cc(N2C[C@@H]3CCN(C(=O)c4ccc(F)cc4-n4nccn4)C[C@@H]32)nc(C(F)(F)F)n1 [Example 34, (1R,6S)-(4-Fluoro-2-[1,2,3]triazol-2-yl-phenyl)-[8-(6-methyl-2-trifluoromethyl-pyrimidin-4-yl)-3,8-diaza-bicyclo[4.2.0]oct-3-yl]-methanone] | 1040 | 50
O=C(c1ccccc1-c1ccccc1)N1CC2CN(c3cnc4ccccc4n3)C2C1 (centres unmarked) [Example 48, 2-[3-(Biphenyl-2-ylcarbonyl)-3,6-diazabicyclo[3.2.0]hept-6-yl]quinoxaline] | 258 | 179
Cc1ccc(C)c(S(=O)(=O)N2CCC3CN(c4nccc(-c5ccccc5)n4)C3C2)c1 (centres unmarked) [Example 19, 3-(2,5-Dimethyl-benzenesulfonyl)-8-(4-phenyl-pyrimidin-2-yl)-3,8-diaza-bicyclo[4.2.0]octane] | 254 | 1070
COc1ccc(C(=O)N2CC[C@H]3CN(c4cc(C)cc(C)n4)[C@H]3C2)c(-n2nccn2)c1 [Example 149, (1R,6S)-8-(4,6-Dimethylpyridin-2-yl)-3-{[4-methoxy-2-(2H-1,2,3-triazol-2-yl)phenyl]carbonyl}-3,8-diazabicyclo[4.2.0]octane] | 10000 | 190
Cc1ccnc(N2CC3CN(C(=O)c4ccccc4Br)CC32)n1 (centres unmarked) [Example 59, (2-Bromo-phenyl)-[6-(4-methyl-pyrimidin-2-yl)-3,6-diaza-bicyclo[3.2.0]hept-3-yl]-methanone] | 10000 | 9320
Nc1cc(N2C[C@@H]3CCN(C(=O)c4cc(F)ccc4-n4nccn4)C[C@@H]32)nc(N)n1 [Example 192, 6-[(1R,6S)-3-{[5-Fluoro-2-(2H-1,2,3-triazol-2-yl)phenyl]carbonyl}-3,8-diazabicyclo[4.2.0]oct-8-yl]pyrimidine-2,4-diamine] | 10000 | 1400
CN(C)c1nc(N2C[C@@H]3CCN(C(=O)c4c(F)cccc4-n4nccn4)C[C@@H]32)cc(C(F)(F)F)n1 [Example 37, (1R,6S)-[8-(2-Dimethylamino-6-trifluoromethyl-pyrimidin-4-yl)-3,8-diaza-bicyclo[4.2.0]oct-3-yl]-(2-fluoro-6-[1,2,3]triazol-2-yl-phenyl)-methanone] | 19 | 10
COc1ccnc(N2CC3CN(C(=O)c4ccccc4-c4cccs4)CC32)n1 (centres unmarked) [Example 62, 6-(4-Methoxypyrimidin-2-yl)-3-[(2-thiophen-2-ylphenyl)carbonyl]-3,6-diazabicyclo[3.2.0]heptane] | 5000 | 123
Cc1cc(C)nc(N2C[C@@H]3CCN(C(=O)c4ncccc4-n4nccn4)C[C@@H]32)n1 [Example 183, (1R,6S)-8-(4,6-Dimethylpyrimidin-2-yl)-3-{[3-(2H-1,2,3-triazol-2-yl)pyridin-2-yl]carbonyl}-3,8-diazabicyclo[4.2.0]octane] | 10000 | 200
Cc1ccc(-n2nccn2)c(C(=O)N2CC3CN(c4nccc(-c5ccccc5)n4)C3C2)c1 (centres unmarked) [Example 69] | 128 | 61
CN(C)c1nc(N2C[C@@H]3CCN(C(=O)c4ccc(F)cc4-n4nccn4)C[C@@H]32)cc(C(F)(F)F)n1 [Example 38, (1R,6S)-[8-(2-Dimethylamino-6-trifluoromethyl-pyrimidin-4-yl)-3,8-diaza-bicyclo[4.2.0]oct-3-yl]-(4-fluoro-2-[1,2,3]triazol-2-yl-phenyl)-methanone] | 77 | 16

The remaining lines, values ahead:

Ki [1] [nM] | Ki [2] [nM] | SMILES
6500 | 208 | COc1ccc(-n2nccn2)c(C(=O)N2CC[C@H]3CN(c4cc(C)ccn4)[C@H]3C2)c1 [Example 139, (1R,6S)-3-{[5-Methoxy-2-(2H-1,2,3-triazol-2-yl)phenyl]carbonyl}-8-(4-methylpyridin-2-yl)-3,8-diazabicyclo[4.2.0]octane]
5020 | 1290 | Cc1cnc(C)c(N2C[C@@H]3CCN(C(=O)c4cc(F)ccc4-n4nccn4)C[C@@H]32)n1 [Example 97, (1R,6S)-8-(3,6-Dimethylpyrazin-2-yl)-3-{[5-fluoro-2-(2H-1,2,3-triazol-2-yl)phenyl]carbonyl}-3,8-diazabicyclo[4.2.0]octane]
3700 | 230 | Cc1ccc(C(=O)N2CC[C@H]3CN(c4nccc(C(F)(F)F)n4)[C@H]3C2)c(-n2ccnn2)n1 [Example 93, (1R,6S)-3-{[6-Methyl-2-(1H-1,2,3-triazol-1-yl)pyridin-3-yl]carbonyl}-8-[4-(trifluoromethyl)pyrimidin-2-yl]-3,8-diazabicyclo[4.2.0]octane]
2400 | 340 | Cc1cc(C)nc(N2C[C@@H]3CCN(C(=O)c4ncoc4-c4ccccc4F)C[C@@H]32)n1 [Example 177, (1R,6S)-8-(4,6-Dimethylpyrimidin-2-yl)-3-{[5-(2-fluorophenyl)-1,3-oxazol-4-yl]carbonyl}-3,8-diazabicyclo[4.2.0]octane]
23 | 18 | O=C(c1c(F)cccc1-n1nccn1)N1CC[C@H]2CN(c3cnc4ccccc4n3)[C@H]2C1 [Example 117, 2-[(1R,6S)-3-{[2-Fluoro-6-(2H-1,2,3-triazol-2-yl)phenyl]carbonyl}-3,8-diazabicyclo[4.2.0]oct-8-yl]quinoxaline]
8200 | 234 | Cc1cc(C)nc(N2C[C@@H]3CCN(C(=O)c4ccc(C)nc4-n4ccnn4)C[C@@H]32)n1 [Example 88, (1R,6S)-8-(4,6-Dimethylpyrimidin-2-yl)-3-{[6-methyl-2-(1H-1,2,3-triazol-1-yl)pyridin-3-yl]carbonyl}-3,8-diazabicyclo[4.2.0]octane]
128 | 59 | O=C(c1ccc(F)cc1-n1nccn1)N1CC[C@H]2CN(c3nc4cc(Cl)ccc4o3)[C@H]2C1 [Example 122, 5-Chloro-2-[(1R,6S)-3-{[4-fluoro-2-(2H-1,2,3-triazol-2-yl)phenyl]carbonyl}-3,8-diazabicyclo[4.2.0]oct-8-yl]-1,3-benzoxazole]
3200 | 170 | Cc1cc(C)nc(N2C[C@@H]3CCN(C(=O)c4cc(C)c(C)nc4-n4ccnn4)C[C@@H]32)n1 [Example 158, (1R,6S)-8-(4,6-Dimethylpyrimidin-2-yl)-3-{[5,6-dimethyl-2-(1H-1,2,3-triazol-1-yl)pyridin-3-yl]carbonyl}-3,8-diazabicyclo[4.2.0]octane]
10000 | 392 | COc1ccnc(N2CC3CN(C(=O)c4ccccc4-c4ccccc4)CC32)n1 (centres unmarked) [Example 63, 3-(Biphenyl-2-ylcarbonyl)-6-(4-methoxypyrimidin-2-yl)-3,6-diazabicyclo[3.2.0]heptane]
16 | 28 | Cc1ccc(C(F)(F)F)c(C(=O)N2CC[C@H]3CN(c4ccnc(-c5ccccc5)n4)[C@H]3C2)c1 [Example 195, (5-Methyl-2-(trifluoromethyl)phenyl)((1R,6S)-8-(2-phenylpyrimidin-4-yl)-3,8-diazabicyclo[4.2.0]octan-3-yl)methanone]
5000 | 176 | Cc1cncc(N2C[C@@H]3CCN(C(=O)c4cc(F)ccc4-n4nccn4)C[C@@H]32)n1 [Example 111, (1R,6S)-3-{[5-Fluoro-2-(2H-1,2,3-triazol-2-yl)phenyl]carbonyl}-8-(6-methylpyrazin-2-yl)-3,8-diazabicyclo[4.2.0]octane]
219 | 55 | Cc1cc(C)nc(N2C[C@@H]3CCN(C(=O)c4cccc5c4-c4ccccc4C5)C[C@@H]32)n1 [Example 167, (1R,6S)-8-(4,6-Dimethylpyrimidin-2-yl)-3-(9H-fluoren-4-ylcarbonyl)-3,8-diazabicyclo[4.2.0]octane]
10000 | 310 | CNc1nc(C)cc(N2C[C@@H]3CCN(C(=O)c4cc(F)ccc4-n4nccn4)C[C@@H]32)n1 [Example 187, 4-[(1R,6S)-3-{[5-Fluoro-2-(2H-1,2,3-triazol-2-yl)phenyl]carbonyl}-3,8-diazabicyclo[4.2.0]oct-8-yl]-N,6-dimethylpyrimidin-2-amine]
3540 | 342 | Cc1cnc(N2C[C@@H]3CCN(C(=O)c4cc(F)ccc4-n4nccn4)C[C@@H]32)cn1 [Example 104, (1R,6S)-3-{[5-Fluoro-2-(2H-1,2,3-triazol-2-yl)phenyl]carbonyl}-8-(5-methylpyrazin-2-yl)-3,8-diazabicyclo[4.2.0]octane]
1650 | 70 | Cc1cc(C)nc(N2C[C@@H]3CCN(C(=O)c4cccc(C)c4-n4ccnn4)C[C@@H]32)n1 [Example 138, (1R,6S)-8-(4,6-Dimethylpyrimidin-2-yl)-3-{[3-methyl-2-(1H-1,2,3-triazol-1-yl)phenyl]carbonyl}-3,8-diazabicyclo[4.2.0]octane]
